Data as given in US8101212B2, “Bioactive botanical cosmetic compositions and processes for their production” (Akzo Nobel Surface Chemistry LLC, priority 2002, dated 2012).
Converted amounts (≈) assume the structure as drawn.

How the values were obtained:
[1] = target: T1, gelatinase B (MMP-9) (Homo sapiens, UniProt P14780); experiment: Gelatinase B inhibitory activity (MMP-9 Activity ELISA); type: biochemical
T1 construct: purchased Amersham Pharmacia
Excerpt: Neutrophils contain two major enzymes from the class of matrix metalloproteinases, which collectively are implicated in extensive connective tissue destruction: neutrophil collagenase (MMP-8) and gelatinase B (MMP-9). Because elastase has poor activity against native collagen, and neutrophil collagenase alone cannot solubilize the connective tissue protein by itself, gelatinase B is considered as a major contributor to inflammatory injury to the extracellular matrix. A specific assay for this enzyme was used to evaluate the potential of cosmetic botanical ingredients to inhibit degradation of the extracellular matrix mediated by inflammatory cell-derived matrix metalloproteinases. Gelatinase B activity was detected by hydrolysis of a low molecular weight synthetic substrate (APMA). Inhibitors of gelatinase B diminish the accelerating rate of enzyme reaction product formation in a dose-dependent fashion. Such enzyme inhibition was found when tested cosmetic ingredients were added to the reaction mixture. Method 6: Method for Determination of Gelatinase B Inhibitory Activity. […] The enzymatic activity was detected at 405 nm by hydrolysis of a low molecular weight synthetic substrate for Gelatinase B: APMA. […]

[2] = Superoxide scavenging activity (xanthine oxidase system, cytochrome c reduction); type: biochemical
Excerpt: Reactive oxygen species generated by activated inflammatory cells (endogenous or exogenous) create specific oxidant which was used to provide the measurements of superoxide scavenging activity. The assay used for evaluation of superoxide scavenging activity relates to the one form of antioxidant activity, which is of benefit in neutralizing the damage associated with oxidation. To generate superoxide anions in high yield and in a controlled fashion, an enzymatic system (xanthine oxidase) was used. The conversion of […] by this enzyme generates amounts of superoxide anions, which are stoichiometric with the amount of substrate provided. The assay used was based on the reduction of cytochrome c from its ferric to ferrous form as a sensitive measure of superoxide levels. […] Method 7: Method for Determination of Superoxide Scavenging Activity. The enzymatic system, which uses xanthine oxidase (a purified enzyme preparation produced by “Sigma”), was used to generate superoxide anions in high yield and in a controlled fashion. The conversion of xanthine to hydroxanthine by this enzyme generates amounts of superoxide anions and reduction of ferricytochrome c to ferrocytochrome c was used as a sensitive measure of superoxide levels. […]

[3] = system: 3T3 fibroblasts; experiment: Neutral red uptake (NRU) cytotoxicity test; type: cell-based; set-up: key to Cell Morphology: NCM: Normal Cell Morphology; MLT: Moderate Level of Toxicity
Excerpt: As an example, a test involving neutral red uptake (NRU) by 3T3 fibroblasts, which is commonly used for determination of cytotoxicity, was utilized to assess cytotoxicity of cosmetic botanical ingredients. The NRU value is proportional to the number of viable cells in this in vitro test population.

T1 sequence (P14780 94-707): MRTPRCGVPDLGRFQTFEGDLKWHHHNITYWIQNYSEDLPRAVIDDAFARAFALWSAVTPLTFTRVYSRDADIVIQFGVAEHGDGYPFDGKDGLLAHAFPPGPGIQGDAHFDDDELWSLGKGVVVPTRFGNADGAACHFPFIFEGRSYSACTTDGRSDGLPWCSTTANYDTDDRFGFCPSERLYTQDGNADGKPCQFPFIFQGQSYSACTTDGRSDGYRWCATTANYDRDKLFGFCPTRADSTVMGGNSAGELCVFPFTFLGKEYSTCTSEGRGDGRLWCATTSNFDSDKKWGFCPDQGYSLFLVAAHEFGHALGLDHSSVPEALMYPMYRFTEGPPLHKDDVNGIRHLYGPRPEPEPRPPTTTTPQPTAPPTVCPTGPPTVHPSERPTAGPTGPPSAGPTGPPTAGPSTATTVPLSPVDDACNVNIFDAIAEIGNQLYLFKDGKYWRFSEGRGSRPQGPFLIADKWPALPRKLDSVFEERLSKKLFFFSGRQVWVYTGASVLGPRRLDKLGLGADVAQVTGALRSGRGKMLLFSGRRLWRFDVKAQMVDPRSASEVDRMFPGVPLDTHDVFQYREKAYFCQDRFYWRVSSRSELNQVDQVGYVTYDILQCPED

Molecule	IC50 [1] [µM]	inhibition at 100 µg/mL ([1]; read-out: % Inhibition [100 μg/ml]) [%]	ICR50 ([2]; Table 29) [μg Dry Matter/mL]	IC50 (superoxide scavenging activity) ([2]; Tables 35 and 36) [µg/mL]	NRU50 of positive control [3]	Cell Morphology ([3]; Table 27)	Cell Morphology ([3]; Table 28, marigold flower products)	NRU50 ([3]; Tables 27 and 28)
O=C(/C=C/c1ccc(O)c(O)c1)O[C@H](Cc1ccc(O)c(O)c1)C(=O)O [Rosmarinic Acid, rosmarinic acid]	83.3	91	26.5	26.5 (≈ 73.5 µM)	–	–	–	–
EGF: Epidermal Growth Factor (EGF) used as a positive control	–	–	–	–	> 2,500 μg/ml	NCM	NCM	>2,500 μg Dry Matter/mL
